One assay deals with T1, PD-1/PD-L1 (Homo sapiens, UniProt Q9NZQ7).
T1 construct: purchased Cisbio 63ADK000CPDPEB
The assay is described as follows: PD-1/PD-L1 binding assay (HTRF, PPI-HTRF). The settings on record: HTRF PD1/PD-L1 binding assay kit; 10 nM Tag1-PD-L1; 25° C. As for the experimental part: Assay 1 PD-1/PD-L1 Binding Assay
DMSO is from Sigma, Cat No: D5879; 384-well small volume plate (white) is from Greiner, Cat No: 784075; Anti-PD1 blocking antibody (IC50: 10 nM) is from Cisbio, Cat No: 64CUS000C-1a; Anti-PDL1 blocking antibody (IC50: 0.3 nM) is from Cisbio, Cat No: 64CUS000C-1b; HTRF PD1/PD-L1 binding assay kit is from Cisbio, Cat No: 63ADK000CPDPEB.
1. Prepare the compound to be tested at 2x concentration into 1× reaction buffer containing 4% DMSO;
2. Tag1-PD-L1 protein and Tag2-PD1 protein were prepared in 1× reaction buffer at concentrations of […] and 10 nM, respectively. The final reaction concentration of the experiment was 10 nM Tag1-PD-L1 and 2 nM […];
3. anti-Tag1-Eu3+ antibody is prepared in 1x concentration detection buffer at a ratio of 1:100;
4. anti-Tag2-XL665 antibody is prepared in 1x concentration detection buffer at a ratio of 1:25; Experimental steps
1. 5 μL of compounds to be tested (2×) was added;
2. 2.5 ul Tag1-PD-L1 protein and 2.5 ul Tag2-PD1 protein were added respectively, and the total reaction system is 10 ul, and reacted at 25° C. for 15 minutes;
3. 5 ul anti-Tag1-Eu3+ antibody and 5 ul anti-Tag2-XL665 antibody were added respectively, and reacted at 25° C. for 16 hours;
4. The fluorescence microplate reader HTRF reading program was used to read two readings at 665 nm and 620 nm, the ratio of the two wavelengths was used to judge the activity of the compound, and the IC50 of the compound to be tested is calculated by XLFIT5.0 (IDBS).
In general terms: In TR-FRET formats the signal depends on donor and acceptor labels being close together.

The test system of assay [1] is Jurkat T(PD1 Luc-)/CHOK1(PDL-1). The assay is described as follows: Jurkat T(PD1 Luc-)/CHOK1(PDL-1) cell experiment (luciferase reporter). The assay is classed as cell-based. The settings on record: CHO/PD-L1-OKT3 cells co-cultured with Jurkat/PD1-NFAT-Luc cells for 6 hours; Bio-Glo luciferase signal. The method, then: Assay 2 Jurkat T(PD1 Luc-)/CHOK1(PDL-1) Cell Experiment
G418, Sangon Biotech #A100859-0001, Cat Number G108BA0003, 5 ml of deionized water being added into each bottle, store at 4° C.
CHO/PD-L1-OKT3 cells (constructed by referring to Promega's PD-1/PD-L1 Blockade Bioassays system) cultured in F-12K medium (containing 10% FBS, 800 ug/ml G418, 400 ug/ml D Hygromycin B) were planted into a 96-well plate at 2×10^4 per well, and incubated for 24 hours at 37° C. and 5% CO2. part of the medium was removed, and the test compound dissolved in DMSO with a final concentration of 1 uM was added, and DMSO at the same concentration was added into the control cells. Jurkat/PD1-NFAT-Luc cells (constructed by referring to Promega's PD-1/PD-L1 Blockade Bioassays system) were added at 5×10^5 per well at the same time, and cultured for 6 hours. The corresponding luciferase signal was detected by Bio-Glo™ (Promega, G7940) reagent. The EC50 of each compound to be tested was calculated through the non-linear regression of XLfit software.

T1 sequence (Q9NZQ7 19-238 limits assumed): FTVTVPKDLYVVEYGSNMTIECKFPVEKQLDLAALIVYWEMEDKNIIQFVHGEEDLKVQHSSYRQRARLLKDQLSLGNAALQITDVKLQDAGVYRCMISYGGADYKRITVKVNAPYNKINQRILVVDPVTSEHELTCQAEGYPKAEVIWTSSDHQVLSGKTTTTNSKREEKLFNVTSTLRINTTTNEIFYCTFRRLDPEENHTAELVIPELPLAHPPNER

`Cc1cc(/C=C/c2nccc(-c3cccc(NC(=O)c4ccc(CNCCO)cn4)c3C)c2C#N)c(Cl)cc1CNCCO` [Z-1, (E)-N-(3-(2-(2-chloro-4-(((2-hydroxyethyl)amino)methyl)-5-methylstyryl)-3-cyanopyridin-4-yl)-2-methylphenyl)-5-(((2-hydroxyethyl)amino)methyl)picolinamide] came in with an IC50 at PD-1/PD-L1 of 1 nM. For the same compound, in assay [1], the EC50 was 162 nM.
The like results for `Cc1cc(/C=C/c2nccc(-c3cccc(NC(=O)c4ccc(CNCCO)cn4)c3C)c2C#N)c(Cl)cc1CN1CCCC[C@H]1C(=O)O` [Z-2, (S, E)-1-(5-chloro-4-(2-(3-cyano-4-(3-(5-(((2-hydroxyethyl)amino)methyl)picolinamido)-2-methylphenyl)pyridin-2-yl)vinyl)-2-methylbenzyl)piperidine-2-carboxylic Acid] were, in that order, 1 nM and 79 nM.
Compound `COc1cc(/C=C/c2cccc(-c3cccc(Nc4nccc5cc(CN6CC[C@@H](O)C6)cnc45)c3C)c2C)c(C(F)(F)F)cc1CN1CC[C@@H](C(=O)O)C1` [Z-8] gave an IC50 at PD-1/PD-L1 of 2 nM. Besides, in assay [1], a half-maximal response (EC50) required 47 nM.
In turn, `Cc1cc(/C=C/c2cccc(-c3cccc(Nc4nccc5cc(CN6CC[C@@H](O)C6)cnc45)c3C)c2C)c(C(F)(F)F)cc1CN1CC[C@@H](C(=O)O)C1` [Z-9] gave an IC50 on PD-1/PD-L1 of 1 nM. The same compound registered an EC50 in assay [1] of 48 nM.
On PD-1/PD-L1, `COc1cc(/C=C/c2cccc(-c3cccc(Nc4nccc5cc(CN6CC[C@@H](O)C6)cnc45)c3C)c2C)c(C(F)(F)F)cc1CN1CCC[C@H]1C(=O)O` [Z-11] showed an IC50 of 1 nM. The compound also displayed an EC50 in assay [1] of 137 nM.
Consider `COc1cc(/C=C/c2ccnc(-c3cccc(Nc4nccc5cc(CN6CC[C@@H](O)C6)cnc45)c3C)c2Cl)c(C(F)(F)F)cc1CN1CC[C@@H](C(=O)O)C1` [Z-12], for which the IC50 at PD-1/PD-L1 turned out to be 1 nM. Also, in assay [1], the EC50 stood at 153 nM.
Compound `CCOC(=O)[C@@H]1CCN(Cc2cc(C#N)c3oc(-c4cccc(-c5cccc(/C=C/c6cc(OC)c(CN7CC[C@@H](O)C7)cc6C(F)(F)F)c5C)c4C)nc3c2)C1` [Z-45] came in with an EC50 in assay [1] of 70 nM.
`Cc1cc(/C=C/c2nccc(-c3cccc(-c4nc5cc(CN6CCC(C(=O)O)C6)cc(Cl)c5o4)c3C)c2C#N)c(C(F)(F)F)cc1CN1CC[C@@H](O)C1` (stereo partly shown) [Z-48] came in with an EC50 in assay [1] of 70 nM.
Consider `COc1cc(/C=C/c2cccc(-c3cccc(-c4cnc(CNC[C@@H]5CCC(=O)N5)c(OC)n4)c3Cl)c2C)c(C(F)(F)F)cc1CN1CC[C@@H](C(=O)O)C1` [Z-58], for which it took 78 nM to reach a half-maximal effect in assay [1] (EC50).
In turn, `Cc1c(NC(=O)c2ccc(CN3CC[C@@H](O)C3)cn2)cccc1-c1ccnc(/C=C/c2ccc(CN3CC[C@@H](C(=O)O)C3)cn2)c1C#N` [Z-69] had an IC50 on PD-1/PD-L1 of 57 nM.
In the case of `Cc1cc(/C=C/c2nccc(-c3cccc(NC(=O)c4ccc(CN5CCOCC5)cn4)c3C)c2C#N)c(Cl)cc1CN1CC[C@@H](C(=O)O)C1` [Z-70, (R,E)-1-(5-chloro-4-(2-(3-cyano-4-(2-methyl-3-(5-(morpholinomethyl)picolinamido)phenyl)pyridin-2-yl)vinyl)-2-methylbenzyl)pyrrolidine-3-carboxylic Acid], on PD-1/PD-L1, the IC50 came out at 3 nM.
On PD-1/PD-L1, `Cc1cc(/C=C/c2nccc(-c3cccc(NC(=O)c4ccc(CN5CCOCC5)cn4)c3C)c2C#N)c(Cl)cc1CN1CCCC[C@H]1C(=O)O` [Z-71] had a half-inhibitory concentration (IC50) of 5 nM.
In turn, `Cc1cc(CN2CCCC[C@H]2C(=O)O)c(C)cc1/C=C/c1nccc(-c2cccc(NC(=O)c3ccc(CN4CC[C@@H](O)C4)cn3)c2C)c1C#N` [Z-72] displayed a 50% inhibitory concentration (IC50) on PD-1/PD-L1 of 2 nM.
On the same count and under the same terms, next, `Cc1cc(/C=C/c2nccc(-c3cccc(NC(=O)c4nc5c(n4C)CCN(C4CCOCC4)C5)c3C)c2C#N)c(Cl)cc1CN1CCCC[C@H]1C(=O)O` [Z-73, (S, E)-1-(5-chloro-4-(2-(3-cyano-4-(2-methyl-3-(l-methyl-5-(tetrahydro-2H-pyran-4-yl)-4,5,6,7-tetrahydro-1H-imidazo[4,5-c]pyridine-2-carboxamido)phenyl)pyridin-2-yl)vinyl)-2-methylbenzyl) piperidine-2-carboxylic Acid]: 2 nM; `COc1cc(/C=C/c2nccc(-c3cccc(NC(=O)c4ccc(CN5CC[C@@H](O)C5)cn4)c3C)c2C#N)cc(OC)c1CN1CCCC[C@H]1C(=O)O` [Z-75]: 36 nM; `Cc1cc(/C=C/c2nccc(-c3cccc(NC(=O)c4ccc(CN5CC[C@@H](O)C5)cn4)c3C)c2C#N)c(Cl)cc1CN1CC2(CC(C(=O)O)C2)C1` [Z-78, (R,E)-2-(5-chloro-4-(2-(3-cyano-4-(3-(5-((3-hydroxypyrrolidin-1-yl)methyl)picolinamido)-2-methylphenyl)pyridin-2-yl)vinyl)-2-methylbenzyl)-2-azaspiro[3.3]heptane-6-carboxylic Acid]: 13 nM.
On the same count and under the same terms, next, `Cc1cc(/C=C/c2nccc(-c3cccc(NC(=O)c4ccc(CN5CC[C@@H](O)C5)cn4)c3C)c2C#N)c(C2CC2)cc1CN1CC[C@@H](C(=O)O)C1` [Z-79, (R)-1-(4-((E)-2-(3-cyano-4-(3-(5-(((R)-3-hydroxypyrrolidin-1-yl)methyl)picolinamido)-2-methylphenyl)pyridin-2-yl)vinyl)-5-cyclopropyl-2-methylbenzyl)pyrrolidine-3-carboxylic Acid]: 1 nM; `Cc1cc(/C=C/c2cccc(-c3cccc(NC(=O)c4ccc(CN5CC[C@@H](O)C5)cn4)c3C)c2C(F)(F)F)c(Cl)cc1CN1CC[C@@H](C(=O)O)C1` [Z-88]: 3 nM.
`COc1cc(/C=C/c2cccc(-c3cccc(NC(=O)c4ccc(CN5CC[C@@H](O)C5)cn4)c3F)c2F)c(C(F)(F)F)cc1CN1CC[C@@H](C(=O)O)C1` [Z-100] registered an IC50 on PD-1/PD-L1 of 1 nM. This IC50 lies about 3-fold lower than the previous one.
With `COc1cc(/C=C/c2cccc(-c3cccc(NC(=O)c4ccc(CN5CC[C@@H](O)C5)cn4)c3C#N)c2Cl)c(C(F)(F)F)cc1CN1CC[C@@H](C(=O)O)C1` [Z-104], on PD-1/PD-L1, the IC50 was 1 nM. That is a single-digit nanomolar value.
On the same count and under the same terms, next, `COc1cc(/C=C/c2cccc(-c3cccc(NC(=O)c4ccc(CN5CC[C@@H](O)C5)c(OC)n4)c3C)c2C)c(C(F)(F)F)cc1CN1CCC[C@H]1C(=O)O` [Z-116]: 3 nM; `COc1cc(/C=C/c2cccc(-c3cccc(NC(=O)c4ccc(CN5CC[C@@H](O)C5)cc4)c3C)c2C)c(C(F)(F)F)cc1CN1CC[C@@H](C(=O)O)C1` [Z-123]: 1 nM.
`COc1cc(/C=C/c2cccc(-c3cccc(NC(=O)c4nc5c(n4C)CCN(C)C5)c3C)c2C)c(C(F)(F)F)cc1CN1CC[C@@H](C(=O)O)C1` [Z-126, (R,E)-1-(4-(2-(3′-(1,5-dimethyl-4,5,6,7-tetrahydro-1H-imidazo[4,5-c]pyridine-2-carboxamido)-2,2′-dimethyl-[1,1′-biphenyl]-3-yl)vinyl)-2-methoxy-5-(trifluoromethyl)benzyl)pyrrolidine-3-carboxylic Acid]: at PD-1/PD-L1, the IC50 amounted to 1 nM.
Compound `COc1cc(C(=O)Nc2cccc(-c3cccc(/C=C/c4cc(C)c(CN5CC[C@@H](C(=O)O)C5)cc4C(F)(F)F)c3C)c2C)ncc1CN1CC[C@@H](O)C1` [Z-127] displayed an IC50 on PD-1/PD-L1 of 1 nM.
On to `COc1cc(/C=C/c2cccc(-c3cccc(NC(=O)c4cn5c(n4)CN(C)CC5)c3C)c2C)c(C(F)(F)F)cc1CN1CCC(C(=O)O)C1` (stereo not shown) [Z-129, (E)-1-(4-(2-(2,2′-dimethyl-3′-(7-methyl-5,6,7,8-tetrahydroimidazo[1,2-a]pyrazine-2-carboxamido)-[1,1′-biphenyl]-3-yl)vinyl)-2-methoxy-5-(trifluoromethyl)benzyl)pyrrolidine-3-carboxylic Acid], for which, at PD-1/PD-L1, the IC50 was determined as 1 nM. In other words, the single-digit nanomolar range.
Turning to `COc1cc(/C=C/c2cccc(-c3cccc(NC(=O)c4cc(OC)c(CN5CC[C@@H](O)C5)cn4)c3C)c2C)c(C(F)(F)F)cc1CN1CC(C(=O)O)C1` [Z-130], at PD-1/PD-L1, the half-inhibitory concentration (IC50) worked out at 1 nM.
For the compound `COc1cc(/C=C/c2cccc(-c3cccc(NC(=O)c4cc(OC)c(CN5CC[C@@H](C(=O)O)C5)cn4)c3C)c2C)c(C(F)(F)F)cc1CN1CC[C@@H](O)C1` [Z-136], on PD-1/PD-L1, the IC50 is 5 nM.
Regarding `COc1cc(/C=C/c2cccc(-c3cccc(NC(=O)c4cc(OC)c(CN5CC[C@@H](O)C5)cn4)c3C)c2C)c(C(F)(F)F)cc1CN1CCC(C(=O)NS(C)(=O)=O)C1` (stereo partly shown) [Z-139], the EC50 in assay [1] was 7 nM.

The term IC50 denotes the concentration that gives 50% inhibition. The term EC50 denotes the concentration needed to bring the measured effect to its halfway point. Low readings indicate an effect from little substance, high ones a need for much substance.

The values are drawn from patent publication US20210386721A1, “SUBSTITUTED PHENYLPROPENYL PYRIDINE DERIVATIVES, THEIR PREPARATION AND PHARMACEUTICAL APPLICATIONS” (SHANGHAI HAIYAN PHARMACEUTICAL TECHNOLOGY CO., LTD., priority 2019, published 2021).
